The values that follow are results of earlier work, collected in paper PMC9045302, “The Characterization of an Efficient Phenylpyruvate Decarboxylase KDC4427, Involved in 2-Phenylethanol and IAA Production from Bacterial Enterobacter sp. CGMCC 5087” (Microbiology Spectrum, 2022).

The Km is the concentration of substrate that gives half-maximal velocity.

Series [1] deals with T1, KDC4427 (Enterobacter sp. CGMCC 5087, UniProt Z9M8L3KFT6).
T1 construct: tetramer stated from homology model; ThDP/Mg2+ dependent
Description: coupled assay with yeast alcohol dehydrogenase, NADH at […] nm. The format is biochemical. To be noted: pH 7.0, 37°C, 0.2 mM ThDP, 0.1 mM MgSO4; footnote: authors' own data cited from their unpublished paper.

In series [2] the target is T1, KDC4427. The series is described as above. It is filed as biochemical. To be noted: pH 7.0, 37°C, 0.2 mM ThDP, 0.1 mM MgSO4; footnote: authors' own data cited from their unpublished paper. The source holds these as a separate data set.

Consider `O=C(O)C(=O)Cc1c[nH]c2ccccc12` [Indole-3-pyruvic acid], for which the Michaelis constant (Km) in series [1] was 0.015 ± 0.002 mM.
On to `O=C(O)C(=O)Cc1ccccc1` [Phenylpyruvic acid], for which the Km in series [2] was 0.6 ± 0.02 mM.
